The text below walks through data of patent US20150011541A1, “PIPECOLATE-SULFONAMIDES FOR TREATMENT OF PSYCHIATRIC DISORDERS” (Max-Planck-Gesellschaft zur Förderung der Wissenschaften …, priority 2011, published 2015).

One assay has as its target T1, human FKBP52FK1 (Homo sapiens, UniProt Q02790).
T1 sequence (Q02790 50-138 limits assumed): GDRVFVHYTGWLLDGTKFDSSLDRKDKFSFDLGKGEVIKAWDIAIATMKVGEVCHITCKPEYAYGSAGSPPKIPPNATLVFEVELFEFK
The experiment in a line: Fluorescence polarization assay, binding to FK1 domain of FKBP52. The note with it: for inhibition at 5 µM: read-out: FKBP52 FK1 % inhibition; for IC50: binding affinity, fluorescence polarization assay. For orientation: Polarisation of emitted light reports the rotation of a fluorescent probe.

A further assay has as its target T2, human FKBP51FK1 (Homo sapiens, UniProt Q13451).
T2 sequence (Q13451 42-130 limits assumed): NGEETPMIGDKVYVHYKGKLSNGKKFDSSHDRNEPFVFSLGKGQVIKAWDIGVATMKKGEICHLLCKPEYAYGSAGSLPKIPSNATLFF
The experiment in a line: Fluorescence polarization assay, binding to FK1 domain of FKBP51. To be noted: for inhibition at 5 µM: read-out: FKBP 51 FK1 % inhibition; for IC50: binding affinity, fluorescence polarization assay.

Where [1] appears, read: at a concentration of 5 μM, library testing.

Like-named read-outs stand apart in the source and are kept apart here.

`COc1ccc(CC[C@@H](OC(=O)[C@@H]2CCCCN2S(=O)(=O)c2ccoc2)c2cccc(OCC(=O)O)c2)cc1OC` [Compound 53, 2-(3-((R)-3-(3,4-dimethoxyphenyl)-1-((S)-1-(furan-3-ylsulfonyl)piperidine-2-carbonyloxy)propyl)phenoxy)acetic acid]: the inhibition (as a rule, the change of the read-out against control, counted positive when it falls) at 5 µM came out at 5.7% on human FKBP52FK1 (setting [1]) and 2% at human FKBP51FK1.

Take `COc1ccc(CC[C@@H](OC(=O)[C@@H]2CCCCN2S(=O)(=O)c2cc3ccccc3o2)c2cccc(OCC(=O)O)c2)cc1OC` [Compound 54, 2-(3-((R)-1-((S)-1-(benzofuran-2-ylsulfonyl)piperidine-2-carbonyloxy)-3-(3,4-dimethoxyphenyl)propyl)phenoxy)acetic acid]: the inhibition at 5 µM at human FKBP52FK1 (setting [1]) worked out at 6.6%; on human FKBP51FK1 (setting [1]) it was 5.5%.

In the case of `COc1ccc(CC[C@@H](OC(=O)[C@@H]2CCCCN2S(=O)(=O)c2cccs2)c2cccc(OCC(=O)O)c2)cc1OC` [Compound 55, 2-(3-((R)-3-(3,4-dimethoxyphenyl)-1-((S)-1-(thiophen-2-ylsulfonyl)piperidine-2-carbonyloxy)propyl)phenoxy)acetic acid], the inhibition at 5 µM on human FKBP52FK1 (setting [1]) amounted to 8.5%; on human FKBP51FK1 (setting [1]), 3.2%.

For `COc1ccc(CC[C@@H](OC(=O)[C@@H]2CCCCN2S(=O)(=O)c2ccc(-c3ccccc3)s2)c2cccc(OCC(=O)O)c2)cc1OC` [Compound 56, 2-(3-((R)-3-(3,4-dimethoxyphenyl)-1-((S)-1-(5-phenylthiophen-2-ylsulfonyl)piperidine-2-carbonyloxy)propyl)phenoxy)acetic acid], the results for the inhibition at 5 µM on human FKBP52FK1 (setting [1]) and at human FKBP51FK1 (setting [1]) were 9.5% and 3.2%, respectively.

As for `COc1ccc(CC[C@@H](OC(=O)[C@@H]2CCCCN2S(=O)(=O)c2csc3ccccc23)c2cccc(OCC(=O)O)c2)cc1OC` [Compound 57, 2-(3-((R)-1-((S)-1-(benzo[b]thiophen-3-ylsulfonyl)piperidine-2-carbonyloxy)-3-(3,4-dimethoxyphenyl)propyl)phenoxy)acetic acid], the values for the inhibition at 5 µM at human FKBP52FK1 (setting [1]) and at human FKBP51FK1 (setting [1]) were 4.7% and 3.2%, respectively.

Take `COc1ccc(CC[C@@H](OC(=O)[C@@H]2CCCCN2S(=O)(=O)c2c(C)nn(C)c2C)c2cccc(OCC(=O)O)c2)cc1OC` [Compound 61, 2-(3-((R)-3-(3,4-dimethoxyphenyl)-1-((S)-1-(1,3,5-trimethyl-1H-pyrazol-4-ylsulfonyl)piperidine-2-carbonyloxy)propyl)phenoxy)acetic acid]: the results for the inhibition at 5 µM on human FKBP52FK1 (setting [1]) and on human FKBP51FK1 (setting [1]) were 1.9% and 5.5%, respectively.

With `COc1ccc(CC[C@@H](OC(=O)[C@@H]2CCCCN2S(=O)(=O)c2c(C)nn(-c3ccccc3)c2C)c2cccc(OCC(=O)O)c2)cc1OC` [Compound 62, 2-(3-((R)-3-(3,4-dimethoxyphenyl)-1-((S)-1-(3,5-dimethyl-1-phenyl-1H-pyrazol-4-ylsulfonyl)piperidine-2-carbonyloxy)propyl)phenoxy)acetic acid], the inhibition at 5 µM on human FKBP52FK1 (setting [1]) was 4.7%; on human FKBP51FK1 (setting [1]), 0.9%.

Regarding `COc1ccc(CC[C@@H](OC(=O)[C@@H]2CCCCN2S(=O)(=O)c2ccc(C)cc2)c2cccc(OCC(=O)O)c2)cc1OC` [Compound 63, 2-(3-((R)-3-(3,4-dimethoxyphenyl)-1-((S)-1-tosylpiperidine-2-carbonyloxy)propyl)phenoxy)acetic acid], the values for the inhibition at 5 µM on human FKBP52FK1 and at human FKBP51FK1 were 3.8% and 3.2%, respectively.

As for `CCOC(=O)C1CCCCN1S(=O)(=O)Cc1ccccc1` (stereo not drawn) [Ref. 1, Ethyl 1-(benzylsulfonyl)piperidine-2-carboxylate, reference compound], the IC50 on human FKBP52FK1 and at human FKBP51FK1 was above 100 µM in each case.

With `CCOC(=O)C1CCCCN1S(=O)(=O)c1cccc([N+](=O)[O-])c1` (stereo not drawn) [Ref. 2, Ethyl 1-(3-nitrophenylsulfonyl)piperidine-2-carboxylate, reference compound], the IC50 on human FKBP52FK1 and on human FKBP51FK1 was above 100 µM each time.

For the compound `COc1ccc(CCCOC(=O)C2CCCCN2S(=O)(=O)Cc2ccccc2)cc1OC` (stereo not drawn) [Ref. 3, 3-(3,4-dimethoxyphenyl)propyl 1-(benzylsulfonyl)piperidine-2-carboxylate, reference compound], the IC50 on human FKBP52FK1 and at human FKBP51FK1 was above 100 µM each time.

As to `O=C(OCCCc1cccnc1)C1CCCCN1S(=O)(=O)c1cccc([N+](=O)[O-])c1` (stereo not drawn) [Ref. 4, 3-(pyridin-3-yl)propyl 1-(3-nitrophenylsulfonyl)piperidine-2-carboxylate, reference compound], the IC50 on human FKBP52FK1 and on human FKBP51FK1 was above 100 µM in each case.
